Source: patent US20100298141A1, “SUBSTITUTED PYRIDINE N-OXIDE HERBICIDES” (E. I. DU PONT DE NEMOURS AND COMPANY, priority 2007, published 2010)

Assays:
crabgrass = test: Test A pre-/postemergence greenhouse test; assay type: in vivo, Digitaria sanguinalis; settings: for Plant response rating, Crabgrass, Large: 0 to 100 scale where 0 is no effect and 100 is complete control; for Crabgrass, Large plant response rating: 0 to 100 scale
Method in brief: (§1)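 Seeds sown in a loam soil–sand blend got a preemergence directed soil spray of compound in a non-phytotoxic solvent mixture containing surfactant. Postemergence sprays of the same formulation went at the same time onto plants 2–10 cm tall at the one- to two-leaf stage. Injury was scored visually against untreated controls after about ten days in the greenhouse.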

giant foxtail [1] = test: Test A pre-/postemergence greenhouse test; assay type: in vivo, Setaria faberi; settings: for Plant response rating, Foxtail, Giant: 0 to 100 scale where 0 is no effect and 100 is complete control; for Foxtail, Giant plant response rating: 0 to 100 scale
Method in brief: as §1

morningglory [2] = test: Test A pre-/postemergence greenhouse test; assay type: in vivo, Ipomoea spp.; settings: for Plant response rating, Morningglory: 0 to 100 scale where 0 is no effect and 100 is complete control; for Morningglory plant response rating: 0 to 100 scale
Method in brief: as §1

wheat = test: Test A pre-/postemergence greenhouse test; assay type: in vivo, Triticum aestivum; settings: for Plant response rating, Wheat: 0 to 100 scale where 0 is no effect and 100 is complete control; for Wheat plant response rating: 0 to 100 scale
Method in brief: as §1

downy brome = test: Test C pre-/postemergence test; assay type: in vivo, Bromus tectorum; settings: for Plant response rating, Bromegrass, Downy: 31 g ai/ha, scale 0 to 100 (0 no effect, 100 complete control)
Method in brief: (§2)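 Seeds were planted and treated preemergence with test chemical in a non-phytotoxic solvent mixture containing surfactant. Postemergence applications of the same formulation went onto plants 2 to 18 cm tall (1- to 4-leaf stage). A dash marks no test result.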

cocklebur = test: Test C pre-/postemergence test; assay type: in vivo, Xanthium strumarium; settings: for Plant response rating, Cocklebur: 31 g ai/ha, scale 0 to 100 (0 no effect, 100 complete control)
Method in brief: as §2

corn = test: Test C pre-/postemergence test; assay type: in vivo, Zea mays; settings: for Plant response rating, Corn: 31 g ai/ha, scale 0 to 100 (0 no effect, 100 complete control)
Method in brief: as §2

woolly cupgrass = test: Test C pre-/postemergence test; assay type: in vivo, Eriochloa villosa; settings: for Plant response rating, Cupgrass, Woolly: 31 g ai/ha, scale 0 to 100 (0 no effect, 100 complete control)
Method in brief: as §2

giant foxtail [3] = test: Test C pre-/postemergence test; assay type: in vivo, Setaria faberii; settings: for Plant response rating, Foxtail, Giant: 31 g ai/ha, scale 0 to 100 (0 no effect, 100 complete control)
Method in brief: as §2

Goosegrass = test: Test C pre-/postemergence test; assay type: in vivo, Eleusin indica; settings: for Plant response rating, Goosegrass: 31 g ai/ha, scale 0 to 100 (0 no effect, 100 complete control)
Method in brief: as §2

johnsongrass = test: Test C pre-/postemergence test; assay type: in vivo, Sorghum halepense; settings: for Plant response rating, Johnsongrass: 31 g ai/ha, scale 0 to 100 (0 no effect, 100 complete control)
Method in brief: as §2

lambsquarters = test: Test C pre-/postemergence test; assay type: in vivo, Chenopodium album; settings: for Plant response rating, Lambsquarters: 31 g ai/ha, scale 0 to 100 (0 no effect, 100 complete control)
Method in brief: as §2

morningglory [4] = test: Test C pre-/postemergence test; assay type: in vivo, Ipomoea coccinea; settings: for Plant response rating, Morningglory: 31 g ai/ha, scale 0 to 100 (0 no effect, 100 complete control)
Method in brief: as §2

yellow nutsedge = test: Test C pre-/postemergence test; assay type: in vivo, Cyperus esculentus; settings: for Plant response rating, Nutsedge, Yellow: 31 g ai/ha, scale 0 to 100 (0 no effect, 100 complete control)
Method in brief: as §2

common ragweed = test: Test C pre-/postemergence test; assay type: in vivo, Ambrosia elation
Method in brief: as §2

soybean = test: Test C pre-/postemergence test; assay type: in vivo, Glycine max
Method in brief: as §2

umbrella sedge = test: Test C flooded paddy test; assay type: in vivo, Cyperus difformis; settings: Flood
Method in brief: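 In-water treatment: compound dosed into 3 cm flood over soil, water level unchanged throughout. Controls run alongside; visual assessment at day 13–15.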

[5] = Postemergence, 500 g ai/ha, 0 is no effect, 100 is complete control
[6] = Preemergence, 125 g ai/ha, 0 no effect, 100 complete control
[7] = 62 g ai/ha, Preemergence, scale 0 to 100
[8] = 125 g ai/ha, preemergence, scale 0 (no effect) to 100 (complete control)
[9] = preemergence, 250 g ai/ha, scale 0 (no effect) to 100 (complete control)
[10] = 62 g ai/ha, scale 0 to 100 (0 no effect, 100 complete control)
[11] = 250 g ai/ha, scale 0 to 100, 0 no effect, 100 complete control, 13 to 15 days
[12] = Preemergence, 31 g ai/ha, scale 0 to 100 (0 no effect, 100 complete control)

CCc1cc[n+]([O-])c([S+]([O-])Cc2c(C(F)(F)F)nn(C)c2OCC(F)(F)F)c1 (stereo not drawn) [Compound 59]
Plant response rating, Crabgrass, Large (crabgrass; Postemergence, 125 g ai/ha): 50
Crabgrass, Large plant response rating (crabgrass; [5]): 90
Crabgrass, Large plant response rating (crabgrass; [6]): 90
Plant response rating, Crabgrass, Large (crabgrass; Preemergence, 500 g ai/ha): 100
Plant response rating, Foxtail, Giant (giant foxtail [1]; Postemergence, 125 g ai/ha): 60
Foxtail, Giant plant response rating (giant foxtail [1]; [5]): 90
Foxtail, Giant plant response rating (giant foxtail [1]; [6]): 100
Plant response rating, Foxtail, Giant (giant foxtail [1]; Preemergence, 500 g ai/ha): 100
Plant response rating, Morningglory (morningglory [2]; Postemergence, 125 g ai/ha): 50
Morningglory plant response rating (morningglory [2]; [5]): 90
Morningglory plant response rating (morningglory [2]; [6]): 70
Plant response rating, Morningglory (morningglory [2]; Preemergence, 500 g ai/ha): 100
Plant response rating, Wheat (wheat; Postemergence, 125 g ai/ha): 60
Wheat plant response rating (wheat; [5]): 70
Wheat plant response rating (wheat; [6]): 60
Plant response rating, Wheat (wheat; Preemergence, 500 g ai/ha): 90
Bromegrass, Downy plant response rating (downy brome; [7]): 40
Bromegrass, Downy plant response rating (downy brome; [8]): 90
Plant response rating, Bromegrass, Downy (downy brome; Preemergence): 20
Bromegrass, Downy plant response rating (downy brome; [9]): 100
Cocklebur plant response rating (cocklebur; [7]): 0
Cocklebur plant response rating (cocklebur; [8]): 30
Plant response rating, Cocklebur (cocklebur; Preemergence): 0
Cocklebur plant response rating (cocklebur; [9]): 80
Corn plant response rating (corn; [7]): 45
Corn plant response rating (corn; [8]): 100
Plant response rating, Corn (corn; Preemergence): 25
Corn plant response rating (corn; [9]): 100
Cupgrass, Woolly plant response rating (woolly cupgrass; [7]): 80
Cupgrass, Woolly plant response rating (woolly cupgrass; [8]): 80
Plant response rating, Cupgrass, Woolly (woolly cupgrass; Preemergence): 0
Cupgrass, Woolly plant response rating (woolly cupgrass; [9]): 100
Foxtail, Giant plant response rating (giant foxtail [3]; [7]): 55
Foxtail, Giant plant response rating (giant foxtail [3]; [8]): 98
Plant response rating, Foxtail, Giant (giant foxtail [3]; Preemergence): 35
Foxtail, Giant plant response rating (giant foxtail [3]; [9]): 100
Goosegrass plant response rating (Goosegrass; [7]): 100
Goosegrass plant response rating (Goosegrass; [8]): 100
Plant response rating, Goosegrass (Goosegrass; Preemergence): 100
Goosegrass plant response rating (Goosegrass; [9]): 100
Johnsongrass plant response rating (johnsongrass; [7]): 60
Johnsongrass plant response rating (johnsongrass; [8]): 100
Plant response rating, Johnsongrass (johnsongrass; Preemergence): 45
Johnsongrass plant response rating (johnsongrass; [9]): 100
Lambsquarters plant response rating (lambsquarters; [7]): 100
Lambsquarters plant response rating (lambsquarters; [8]): 100
Plant response rating, Lambsquarters (lambsquarters; Preemergence): 80
Lambsquarters plant response rating (lambsquarters; [9]): 100
Morningglory plant response rating (morningglory [4]; [7]): 100
Morningglory plant response rating (morningglory [4]; [8]): 100
Plant response rating, Morningglory (morningglory [4]; Preemergence): 50
Morningglory plant response rating (morningglory [4]; [9]): 100
Nutsedge, Yellow plant response rating (yellow nutsedge; [7]): 30
Nutsedge, Yellow plant response rating (yellow nutsedge; [8]): 85
Plant response rating, Nutsedge, Yellow (yellow nutsedge; Preemergence): 0
Nutsedge, Yellow plant response rating (yellow nutsedge; [9]): 95
Ragweed plant response rating (common ragweed; [7]): 30
Ragweed plant response rating (common ragweed; [8]): 100
Ragweed plant response rating (common ragweed; [9]): 100
Soybean plant response rating (soybean; [7]): 10
Soybean plant response rating (soybean; [8]): 100
Soybean plant response rating (soybean; [9]): 100
Plant response rating, Sedge, Umbrella (umbrella sedge; [10]): 80
Plant response rating, Sedge, Umbrella (umbrella sedge; [11]): 100

Cc1cc[n+]([O-])c(S(=O)(=O)Cc2c(C(F)(F)F)nn(C)c2OC(C)C(F)(F)F)c1 (stereo not drawn) [Compound 96]
Plant response rating, Crabgrass, Large (crabgrass; Postemergence, 125 g ai/ha): 40
Crabgrass, Large plant response rating (crabgrass; [5]): 90
Crabgrass, Large plant response rating (crabgrass; [6]): 80
Plant response rating, Crabgrass, Large (crabgrass; Preemergence, 500 g ai/ha): 100
Plant response rating, Foxtail, Giant (giant foxtail [1]; Postemergence, 125 g ai/ha): 70
Foxtail, Giant plant response rating (giant foxtail [1]; [5]): 80
Foxtail, Giant plant response rating (giant foxtail [1]; [6]): 100
Plant response rating, Foxtail, Giant (giant foxtail [1]; Preemergence, 500 g ai/ha): 100
Plant response rating, Morningglory (morningglory [2]; Postemergence, 125 g ai/ha): 10
Morningglory plant response rating (morningglory [2]; [5]): 70
Morningglory plant response rating (morningglory [2]; [6]): 20
Plant response rating, Morningglory (morningglory [2]; Preemergence, 500 g ai/ha): 80
Plant response rating, Wheat (wheat; Postemergence, 125 g ai/ha): 50
Wheat plant response rating (wheat; [5]): 70
Wheat plant response rating (wheat; [6]): 20
Wheat plant response rating (wheat; Preemergence, 500 g ai/ha, 0 no effect, 100 complete control): 80
Bromegrass, Downy plant response rating (downy brome; [7]): 50
Plant response rating, Bromegrass, Downy (downy brome; Preemergence): 50
Bromegrass, Downy plant response rating (downy brome; [9]): 55
Cocklebur plant response rating (cocklebur; [7]): 0
Cocklebur plant response rating (cocklebur; [8]): 10
Plant response rating, Cocklebur (cocklebur; Preemergence): 0
Cocklebur plant response rating (cocklebur; [9]): 40
Corn plant response rating (corn; [7]): 0
Corn plant response rating (corn; [8]): 35
Plant response rating, Corn (corn; Preemergence): 0
Corn plant response rating (corn; [9]): 60
Cupgrass, Woolly plant response rating (woolly cupgrass; [7]): 70
Cupgrass, Woolly plant response rating (woolly cupgrass; [8]): 95
Plant response rating, Cupgrass, Woolly (woolly cupgrass; Preemergence): 50
Cupgrass, Woolly plant response rating (woolly cupgrass; [9]): 98
Foxtail, Giant plant response rating (giant foxtail [3]; [7]): 80
Foxtail, Giant plant response rating (giant foxtail [3]; [8]): 95
Plant response rating, Foxtail, Giant (giant foxtail [3]; Preemergence): 80
Foxtail, Giant plant response rating (giant foxtail [3]; [9]): 98
Goosegrass plant response rating (Goosegrass; [7]): 100
Goosegrass plant response rating (Goosegrass; [8]): 100
Plant response rating, Goosegrass (Goosegrass; Preemergence): 95
Goosegrass plant response rating (Goosegrass; [9]): 100
Johnsongrass plant response rating (johnsongrass; [7]): 95
Johnsongrass plant response rating (johnsongrass; [8]): 100
Plant response rating, Johnsongrass (johnsongrass; Preemergence): 70
Johnsongrass plant response rating (johnsongrass; [9]): 100
Lambsquarters plant response rating (lambsquarters; [7]): 100
Lambsquarters plant response rating (lambsquarters; [8]): 100
Plant response rating, Lambsquarters (lambsquarters; Preemergence): 50
Lambsquarters plant response rating (lambsquarters; [9]): 100
Morningglory plant response rating (morningglory [4]; [7]): 70
Morningglory plant response rating (morningglory [4]; [8]): 95
Plant response rating, Morningglory (morningglory [4]; Preemergence): 0
Morningglory plant response rating (morningglory [4]; [9]): 100
Nutsedge, Yellow plant response rating (yellow nutsedge; [7]): 80
Nutsedge, Yellow plant response rating (yellow nutsedge; [8]): 95
Plant response rating, Nutsedge, Yellow (yellow nutsedge; Preemergence): 40
Nutsedge, Yellow plant response rating (yellow nutsedge; [9]): 95
Ragweed plant response rating (common ragweed; [7]): 20
Ragweed plant response rating (common ragweed; [8]): 100
Plant response rating, Ragweed (common ragweed; [12]): 20
Ragweed plant response rating (common ragweed; [9]): 100
Soybean plant response rating (soybean; [7]): 20
Soybean plant response rating (soybean; [8]): 40
Plant response rating, Soybean (soybean; [12]): 20
Soybean plant response rating (soybean; [9]): 70
Plant response rating, Sedge, Umbrella (umbrella sedge; [10]): 0
Plant response rating, Sedge, Umbrella (umbrella sedge; [11]): 75
